Assay results from patent publication US20230002446A1, “ANTI-INFLAMMATORY AGENTS” (The University of Sydney, priority 2019, published 2023).
Where a SMILES comes first, the peptide text is derived from it. [ ]: non-standard residue; d: D form. AEEA = NCCOCCOCC(=O)O

Tests used:
[1] = test system: human macrophages/monocytes; type: cell-based
Method: (§1) FIG. 6—Peptide administration is not cytostatic or cytotoxic to murine and human macrophages/monocytes. Cytostatic/cytotoxic effect of peptide RP23 (SEQ ID NO:12) was assessed after overnight incubation (A) by WST-1 assay in RAW and THP-1 cell lines (data are the means of 2 replicates) (B) by LDH assay in primary murine BMDMs or human MDMs (data are mean±S.E.M).

[2] = test system: murine macrophages/monocytes; type: cell-based
Method: as §1

SMILES: CSCC[C@H](NC(=O)COCCOCCNC(=O)[C@H](CCCCN)NC(=O)[C@H](CCCCN)NC(=O)[C@H](CCCCN)NC(=O)[C@@H](N)CCCCN)C(=O)N[C@H](C(=O)N1CCC[C@H]1C(=O)NCC(=O)N[C@H](C(=O)N[C@@H](CCC(N)=O)C(=O)N[C@@H](CO)C(=O)N1CCC[C@H]1C(=O)N[C@@H](Cc1ccccc1)C(=O)N[C@@H](Cc1ccccc1)C(=O)N[C@@H](CC(C)C)C(=O)N[C@@H](CC(C)C)C(=O)N[C@@H](CC(C)C)C(=O)N[C@@H](CC(C)C)C(=O)N[C@@H](CC(C)C)C(=O)N[C@H](C(=O)N[C@H](C(=O)N[C@@H](CC(C)C)C(=O)N[C@H](C(=O)N[C@H](C(=O)N[C@H](C(=O)O)C(C)C)C(C)C)[C@@H](C)O)C(C)C)[C@@H](C)O)[C@@H](C)O)[C@@H](C)O [RP23] (H-KKKK[AEEA]MTPGTQSPFFLLLLLTVLTVV-OH)
- cytostatic or cytotoxic effects [1]: without causing any cytostatic or cytotoxic effects
- cytostatic or cytotoxic effects [2]: without causing any cytostatic or cytotoxic effects
